The target in this assay is T1, human TLR9 (Homo sapiens, UniProt Q9NR96).
T1 construct: host or cells: HEK-Blue cells (HEK293-derived reporter line)
T1 sequence (Q9NR96 26-1032): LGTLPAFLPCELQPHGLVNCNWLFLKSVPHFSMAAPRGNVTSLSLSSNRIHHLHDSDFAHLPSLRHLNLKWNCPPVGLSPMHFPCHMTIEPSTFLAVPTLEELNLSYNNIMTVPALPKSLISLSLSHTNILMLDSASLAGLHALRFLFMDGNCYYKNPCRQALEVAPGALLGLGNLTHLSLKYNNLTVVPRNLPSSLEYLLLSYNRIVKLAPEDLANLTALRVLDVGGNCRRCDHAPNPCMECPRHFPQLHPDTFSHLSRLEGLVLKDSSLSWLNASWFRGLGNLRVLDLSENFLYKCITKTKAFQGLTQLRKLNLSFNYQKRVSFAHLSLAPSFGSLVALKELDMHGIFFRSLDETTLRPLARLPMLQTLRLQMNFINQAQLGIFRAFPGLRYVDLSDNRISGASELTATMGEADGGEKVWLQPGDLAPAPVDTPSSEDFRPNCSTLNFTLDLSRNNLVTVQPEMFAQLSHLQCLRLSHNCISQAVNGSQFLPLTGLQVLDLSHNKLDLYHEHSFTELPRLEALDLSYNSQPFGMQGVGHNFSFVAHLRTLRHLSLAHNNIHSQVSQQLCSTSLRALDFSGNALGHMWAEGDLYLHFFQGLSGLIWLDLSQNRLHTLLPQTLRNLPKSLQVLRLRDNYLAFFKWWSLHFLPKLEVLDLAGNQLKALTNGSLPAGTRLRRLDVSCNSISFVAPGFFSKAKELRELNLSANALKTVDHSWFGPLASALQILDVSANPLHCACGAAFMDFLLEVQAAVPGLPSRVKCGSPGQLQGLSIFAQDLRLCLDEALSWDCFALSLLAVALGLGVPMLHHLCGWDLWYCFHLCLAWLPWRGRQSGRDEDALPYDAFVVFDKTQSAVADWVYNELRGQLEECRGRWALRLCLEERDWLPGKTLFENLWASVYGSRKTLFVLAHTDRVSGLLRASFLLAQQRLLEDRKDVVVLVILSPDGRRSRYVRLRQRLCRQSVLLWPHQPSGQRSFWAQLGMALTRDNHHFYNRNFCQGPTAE
In words: TLR9 inhibition reporter assay (HEK-Blue cells, secreted embryonic alkaline phosphatase reporter). Format: cell-based. How it is done: TLR7/8/9 Inhibition Reporter Assays
HEK-Blue™-cells (Invivogen) overexpressing human TLR7, TLR8 or TLR9 receptors were used for screening inhibitors of these receptors using an inducible SLAP (secreted embryonic alkaline phosphatase) reporter gene under the control of the […] minimal promoter fused to five NF-κB and AP-1-binding sites. Briefly, cells are seeded into Greiner 384 well plates (15000 cells per well for TLR7, 20,000 for TLR8 and 25,000 for TLR9) and then treated with test compounds in DMSO to yield a final dose response concentration range of 0.05 nM-50 μM. After a 30 minute compound pre-treatment at room temperature, the cells are then stimulated with a TLR7 ligand (gardiquimod at a final concentration of 7.5 μM), TLR8 ligand (R848 at a final concentration of 15.9 μM) or TLR9 ligand (ODN2006 at a final concentration of 5 nM) to activate NF-κB and AP-1 which induce the production of SLAP. After a 22 hour incubation at 37° C., […], SLAP levels are determined with the addition of HEK-Blue™ Detection reagent (Invivogen), a cell culture medium that allows for detection of SLAP, according to manufacturer's specifications. The percent inhibition is determined as the […] in the HEK-Blue signal present in wells treated with agonist plus DMSO alone compared to wells treated with a known inhibitor.

The mark [1] stands for this setting: HEK-Blue cells overexpressing human TLR9, stimulated with ODN2006 5 nM, read-out: TLR 9 IC50.
Setting [2] is: HEK-Blue human TLR9 reporter cells.
Where [3] appears, read: HEK-Blue cells overexpressing human TLR9, stimulated with ODN2006 5 nM, 22 hour incubation, reporter readout.

Where two headings read alike, the source gives them in different places.

Broadly, the IC50 is the point on the concentration scale where inhibition reaches its midpoint.

Consider `Cc1cc2nc(-c3ccc(S(C)(=O)=O)cc3)n(C)c2cc1C1CCN(C2CCN(CC(C)C)CC2)CC1` [Example 331, 6-(1′-isobutyl-[1,4′-bipiperidin]-4-yl)-1,5-dimethyl-2-(4-(methylsulfonyl)phenyl)-1H-benzo[d]imidazole], for which the concentration for half-maximal inhibition (IC50) came to 143 nM under setting [1] and 140 nM under setting [2].

`COc1ccc(-c2nc3ccc(C4CCN(C5CCN(C(C)C)CC5)CC4)c(F)c3[nH]2)cc1OC` [Example 132, 2-(3,4-dimethoxyphenyl)-7-fluoro-6-(1′-isopropyl-[1,4′-bipiperidin]-4-yl)-1H-benzo[d]imidazole] displayed an IC50 of 200 nM. For the same molecule, the IC50 under setting [1] came to 202 nM.

Molecule `Cc1cc(C2CCN(C3CC4(C3)CN(C3CCC3)C4)CC2)cc2c1nc(-c1ccc(S(C)(=O)=O)cc1)n2C` [Example 140, 6-(1-(2-cyclobutyl-2-azaspiro[3.3]heptan-6-yl)piperidin-4-yl)-1,4-dimethyl-2-(4-(methylsulfonyl)phenyl)-1H-benzo[d]imidazole] showed an IC50 of 290 nM. Further, under setting [1], the IC50 was 290 nM.

As to `Cc1cc(C2CCN(C3CC4CCC(C3)N4C3CCC3)CC2)cc2c1nc(-c1ccc(S(C)(=O)=O)c(F)c1)n2C` (single isomer, unassigned) [Example 123, 6-(1-(8-cyclobutyl-8-azabicyclo[3.2.1]octan-3-yl)piperidin-4-yl)-2-(3-fluoro-4-(methylsulfonyl)phenyl)-1,4-dimethyl-1H-benzo[d]imidazole], the IC50 by setting is: under setting [3], 890 nM; under setting [1], 889 nM.

Regarding `Cc1cc(C2CCN(C3CCN(CC(C)C)CC3)CC2)cc2[nH]c(-c3ccc(C4CC4)cc3)nc12` [Example 68, 2-(4-cyclopropylphenyl)-6-(1′-isobutyl-[1,4′-bipiperidin]-4-yl)-4-methyl-1H-benzo[d]imidazole], the IC50 runs as follows: under setting [3], 85 nM; under setting [1], 85 nM.

As to `Cc1noc(C)c1-c1nc2c(C)cc(C3CCN(C4CCN(CC(C)C)CC4)CC3)cc2[nH]1` [Example 71, 4-(6-(1′-isobutyl-[1,4′-bipiperidin]-4-yl)-4-methyl-1H-benzo[d]imidazol-2-yl)-3,5-dimethylisoxazole], the IC50 was 1800 nM under setting [3] and 1770 nM under setting [1].

As to `COc1ccc(-c2nc3cc(F)c(C4CCN(C5CCN(C(C)C)CC5)CC4)cc3[nH]2)cc1OC` [Example 129, 2-(3,4-dimethoxyphenyl)-5-fluoro-6-(1′-isopropyl-[1,4′-bipiperidin]-4-yl)-1H-benzo[d]imidazole], the IC50 amounted to 190 nM. The IC50 under setting [1] was 185 nM.

As for `Cc1c(C2CCN(C3CCN(CC(C)C)CC3)CC2)ccc2nc(-c3ccc(S(C)(=O)=O)cc3)n(C)c12` [Example 330, 6-(1′-isobutyl-[1,4′-bipiperidin]-4-yl)-1,7-dimethyl-2-(4-(methylsulfonyl)phenyl)-1H-benzo[d]imidazole], the IC50 runs as follows: under setting [1], 1390 nM; under setting [2], 1400 nM.

On to `COc1ccc(-c2nc3c(C)cc(C4CCN(C5CC6CCC(C5)N6C(C)C)CC4)cc3n2C)cc1OC` (stereo not shown) [Example 145, 2-(3,4-dimethoxyphenyl)-6-(1-(8-isopropyl-8-azabicyclo[3.2.1]octan-3-yl)piperidin-4-yl)-1,4-dimethyl-1H-benzo[d]imidazole], for which the IC50 is 24 nM. Also, the IC50 under setting [1] was 24 nM.

As for `Cc1cc(C2CCN(C3CCN(CC(C)C)CC3)CC2)cc2[nH]c(-c3nc4ccccc4s3)nc12` [Example 70, 2-(6-(1′-isobutyl-[1,4′-bipiperidin]-4-yl)-4-methyl-1H-benzo[d]imidazol-2-yl)benzo[d]thiazole tris(2,2,2-trifluoroacetate)], the IC50 came to 210 nM under setting [3] and 208 nM under setting [1].

Take `Cc1cc(C2CCN(C3CCN(CC(C)C)CC3)CC2)cc2[nH]c(-c3cccc4ncsc34)nc12` [Example 77, 7-(6-(1′-isobutyl-[1,4′-bipiperidin]-4-yl)-4-methyl-1H-benzo[d]imidazol-2-yl)benzo[d]thiazole]: the IC50 came out at 31 nM under setting [3] and 31 nM under setting [1].

`COc1ccc(-c2nc3c(C)cc(C4CCN(C5CC6CCC(C5)N6CC5CC5)CC4)cc3n2C)cc1OC` (stereo not shown) [Example 148, 6-(1-(8-(cyclopropylmethyl)-8-azabicyclo[3.2.1]octan-3-yl)piperidin-4-yl)-2-(3,4-dimethoxyphenyl)-1,4-dimethyl-1H-benzo[d]imidazole] registered an IC50 of 34 nM. Besides, the IC50 under setting [1] amounted to 34 nM.

For `Cc1cc(-c2ccc(N3CCN(C4CCOCC4)CC3)cc2)cc2c1nc(-c1ccc(S(C)(=O)=O)cc1)n2C` [Example 176, 1,4-dimethyl-2-(4-(methylsulfonyl)phenyl)-6-(4-(4-(tetrahydro-2H-pyran-4-yl)piperazin-1-yl)phenyl)-1H-benzo[d]imidazole], it took 680 nM to reach half-maximal inhibition (IC50). Besides, under setting [1], the IC50 is 680 nM.

With `Cc1cc(C2CCN(C3CCN(CC(C)C)CC3)CC2)cc2[nH]c(-c3ccccc3OC(F)(F)F)nc12` [Example 80, 6-(1′-isobutyl-[1,4′-bipiperidin]-4-yl)-4-methyl-2-(2-(trifluoromethoxy)phenyl)-1H-benzo[d]imidazole tris(2,2,2-trifluoroacetate)], the IC50 was found to be 360 nM under setting [3] and 358 nM under setting [1].

As for `COc1cc(-c2nc3c(C)cc(C4CCN(C5CC6CCC(C5)N6C(C)C)CC4)cc3[nH]2)cn2ncnc12` (stereo not shown) [Example 362, 6-(6-(1-(8-isopropyl-8-azabicyclo[3.2.1]octan-3-yl)piperidin-4-yl)-4-methyl-1H-benzo[d]imidazol-2-yl)-8-methoxy-[1,2,4]triazolo[1,5-a]pyridine], the IC50 is, setting by setting: under setting [1], 152 nM; under setting [2], 150 nM.

For `CS(=O)(=O)c1ccc(-c2nc3c(F)cc(C4CCN(C5CCN(CC6CC6)CC5)CC4)cc3n2C2CC2)cc1` [Example 320, 1-cyclopropyl-6-(1′-(cyclopropylmethyl)-[1,4′-bipiperidin]-4-yl)-4-fluoro-2-(4-(methylsulfonyl)phenyl)-1H-benzo[d]imidazole], the IC50 by setting is: under setting [1], 77 nM; under setting [2], 77 nM.

On to `COc1ccc(-c2nc3c(C)cc(C4CCN(C5CC6CCC(C5)N6CC5CC5)CC4)cc3n2C)cc1OC` (stereo not shown) [Example 149, 6-(1-(8-(cyclopropylmethyl)-8-azabicyclo[3.2.1]octan-3-yl)piperidin-4-yl)-2-(3,4-dimethoxyphenyl)-1,4-dimethyl-1H-benzo[d]imidazole], for which half-maximal inhibition (IC50) was put at 47 nM. Moreover, under setting [1], the IC50 stood at 47 nM.

`Cc1cc(C2CCN(C3CCN(CC(C)C)CC3)CC2)cc2[nH]c(-c3ccc(S(C)(=O)=O)c(Br)c3)nc12` [Example 67, 2-(3-bromo-4-(methylsulfonyl)phenyl)-6-(1′-isobutyl-[1,4′-bipiperidin]-4-yl)-4-methyl-1H-benzo[d]imidazole]: the IC50 is, setting by setting: under setting [3], 44 nM; under setting [1], 44 nM.

In turn, `COc1ccc(-c2nc3ccc(C4CCN(C5CCN(CC(C)C)CC5)CC4)c(F)c3[nH]2)cc1OC` [Example 133, 2-(3,4-dimethoxyphenyl)-7-fluoro-6-(1′-isobutyl-[1,4′-bipiperidin]-4-yl)-1H-benzo[d]imidazole] showed an IC50 of 2200 nM. Under setting [1], the IC50 came out at 2200 nM.

Consider `Cc1cc(C2CCN(C3CC4CCC(C3)N4C3CC3)CC2)cc2[nH]c(-c3ccc(S(C)(=O)=O)c(F)c3)nc12` (stereo not shown) [Example 347, 6-(1-(8-cyclopropyl-8-azabicyclo[3.2.1]octan-3-yl)piperidin-4-yl)-2-(3-fluoro-4-(methylsulfonyl)phenyl)-4-methyl-1H-benzo[d]imidazole], for which the IC50 worked out at 44 nM under setting [1] and 44 nM under setting [2].

For the origin of these results see patent US12492188B2, “1H-benzo[D]imidazole derivatives as TLR9 inhibitors for the treatment of fibrosis” (BRISTOL-MYERS SQUIBB COMPANY, priority 2020, dated 2025).
